# In patent US20190375778A1, “ADENOSINE DERIVATIVES FOR USE IN THE TREATMENT OF CANCER” (NuCana plc, priority 2016, published 2019):
# Where two headings read alike, the source gives them in different places.
# What was measured:
# SW620 = assay: CellTiterGlo viability assay, SW620; assay type: cell-based; details: Homo sapiens, read-out: IC50 SW620
# Experimental: (§1) In vitro viability assay were performed to assess the effects of compounds on cell viability in selected cell lines over ˜72 hrs using the CellTiterGlo (CTG, Promega-G7573) assay. The tests were performed in duplicates with treatment of compounds at 9 points, 3.16 folds titration in 96 well plates over ˜72 hrs. The compound starting concentrations were 198 μM. Cell viability assay using CellTiterGlo in 96-well plate were performed. Compound treatment 72 hrs, standard growth conditions, duplicates. Compounds were dissolved to 40 mM with thawed […]. Compounds were serially diluted at 3.16 fold in thawed DMSO, and warmed to 37° C. before being dissolved in media (2 μl+200 μl). After compounds were dissolved in media, media containing compounds were warmed to 37° C. in incubator and then compounds in media were added to cell plates (50 μl+50 μl) in duplicates. The compounds' final concentrations were from […] to 19.9 nM. All compound solubilities were checked and recorded again, then the plates were transferred to CO2 tissue culture incubator immediately and incubated for 3 days. DMSO final concentration is 0.5%.
# HEL92.1.7 = assay: CellTiterGlo viability assay, HEL92.1.7; assay type: cell-based; details: Homo sapiens, read-out: IC50 HEL92.1.7
# Procedure, shortened: (§2)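 CTG luminescence read-out after ~72 h compound exposure; 9 pts, 3.16-fold dilution, top final 198 μM, bottom 19.9 nM; duplicates; 0.5% DMSO final; 37 °C CO2 incubator.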
# [1] = Drug stability in human plasma with or without EHNA; assay type: in vitro ADME; details: human plasma, with or without EHNA
# Experimental: 10 ml of human plasma sample (Sera laboratories, UK) was treated with 1 μM of EHNA. 1 ml from this was taken along with 1 μl of 20 µM concentration of each drug (8-Cl-A, compound A, compound B and compound D) which was added to new tubes and incubated for 2 hours at 37° C. with 5% CO2. After incubation, 100 μl of each sample was taken and 300 μl of 100% methanol was added and left on ice for 30 minutes. After 30 minutes, the mixture was centrifuged (14000 rpm, 4° C., 10 minutes), the supernatant was transferred to new tubes and evaporated under speed vac. Then the dried pellet was reconstituted in 100 μl of 10% Acetonitrile and transferred to LC-MS vials for injection in to the UPLC-MS/MS system.
# (§3) The dose-response curves of cytotoxicity of the drugs was determined using non-linear regression analysis of percentage cell viability versus concentration and EC50 values were obtained. The intracellular assay was conducted in five repeats for each condition. Intracellular assay was determined using paired T test (two-tailed) analysis of 8-ChloroATP/ATP concentration and p values were obtained. Drug stability in human plasma was determined using two-way ANOVA analysis. For all the analysis, Prism Software program (GraphPad Software) was used.
# K562 = assay: CellTiterGlo viability assay, K562; assay type: cell-based; details: Homo sapiens, read-out: IC50 K562
# Procedure, shortened: as §2
# Z138 = assay: CellTiterGlo viability assay, Z138; assay type: cell-based; details: Homo sapiens, read-out: IC50 Z138
# Experimental: as §1
# Jurkat = assay: CellTiterGlo viability assay, Jurkat; assay type: cell-based; details: Homo sapiens, read-out: IC50 Jurkat
# Experimental: as §1
# MCF7 = assay: CellTiterGlo viability assay, MCF7; assay type: cell-based; details: Homo sapiens, read-out: IC50 MCF7
# Experimental: as §1
# NCI-H929 = assay: CellTiterGlo viability assay, NCI-H929; assay type: cell-based; details: Homo sapiens, read-out: IC50 NCI-H929
# Procedure, shortened: as §2
# MOLT-4 = assay: CellTiterGlo viability assay, MOLT-4; assay type: cell-based; details: Homo sapiens, read-out: IC50 MOLT-4
# Experimental: as §1
# THP-1 = assay: CellTiterGlo viability assay, THP-1; assay type: cell-based; details: Homo sapiens, read-out: IC50 THP-1
# Experimental: as §1
# HepG2 = assay: CellTiterGlo viability assay, HepG2; assay type: cell-based; details: Homo sapiens, read-out: IC50 HepG2
# Experimental: as §1
# HL-60 = assay: ATP ViaLight cytotoxicity assay, HL-60; assay type: cell-based; details: Homo sapiens, HL-60, 72 h
# Experimental: HL-60, CTS, and K-562 are leukaemia cell lines, which were obtained from the American Type Culture Collection (ATCC), Middlesex. HL-60 cell line is of acute promyelocytic leukaemia; CTS cell line is of acute myeloid leukaemia; and K-562 cell line is of chronic myeloid leukaemia.
# HL-60, CTS, and K-562 cell lines were cultured in RPMI-1640 medium (Sigma Aldrich, UK), which was supplemented with 10% Fetal Bovine Serum (FBS) (PAA Laboratories), 1% amphotericin B (5.5 ml) and 1% penicillin/streptomycin (5.5 ml) (PAA Laboratories) and grown in flasks at 37° C. incubator with 5% CO2.
# For inhibitor studies the cell lines were treated in the same way as described above but before treatment with drugs, a number of inhibitors were added: • 1) Nitrobenzylthioinosine (NBTI) (Sigma-Aldrich, St. Louis, Mo.) inhibits hENT1. • 2) A-134974 dihydrochloride hydrate (Sigma-Aldrich, St. Louis, Mo.) inhibits adenosine kinase. • 3) EHNA hydrochloride (Sigma-Aldrich, St. Louis, Mo.) inhibits adenosine deaminase.
# ATP ViaLight™ plus assay kit (Lonza, USA: Product No. LT07-121) was used for treating the cells in luminescence compatible 96 well plates (initial concentration of cells was 1×10^4 cells/well) with 8-Cl-A and ProTides, concentrations: 0, 0.1, 0.5, 1, 5 and 10 μM were added to cells, respectively, followed by incubation for 72 hours at 37° C. incubator with 5% CO2. For inhibitor studies, […] concentration of each inhibitor was added before drugs and incubated for 72 hours at 37° C. with 5% CO2.
# After incubation, 50 μl of cell lysis reagent was added to the 96 well plates to release the intracellular ATP, followed by 100 μl of ATP monitoring reagent (AMR). The luminescent values of each well were determined using FLUOstar OPTIMA microplate reader (BMG Labtech) which converted ATP into light by using luciferase enzyme.
# as §3
# HS445 = assay: CellTiterGlo viability assay, HS445; assay type: cell-based; details: read-out: IC50 HS445
# Experimental: as §1
# CCRFCEM = assay: CellTiterGlo viability assay, CCRFCEM; assay type: cell-based; details: Homo sapiens, CCRF-CEM, read-out: IC50 CCRFCEM
# Procedure, shortened: as §2
# BxPC-3 = assay: CellTiterGlo viability assay, BxPC-3; assay type: cell-based; details: Homo sapiens, read-out: IC50 BxPC-3
# Experimental: as §1
SMILES,"IC50 (SW620; SW-620, 72 h)","IC50 (HEL92.1.7; HEL 92.1.7, 72 h)","IC50 (K562; K562, 72 h)","IC50 (Z138; Z-138, 72 h)",IC50 (Jurkat; 72 h),"IC50 (MCF7; MCF7, 72 h)","IC50 (NCI-H929; NCI-H929, 72 h)","IC50 (MOLT-4; MOLT-4, 72 h)","IC50 (THP-1; THP-1, 72 h)","IC50 (HepG2; HepG2, 72 h)",EC50 (HL-60; Control (no inhibitor)),"IC50 (HS445; Hs 445, 72 h)",IC50 (CCRFCEM; 72 h),"IC50 (BxPC-3; BXPC-3, 72 h)",also measured
"C[C@H](NP(=O)(OC[C@H]1O[C@@H](n2c(Cl)nc3c(N)ncnc32)C(O)C1O)Oc1cccc2ccccc12)C(=O)OCc1ccccc1 (stereo partly drawn) [Compound D, (2S)-Benzyl 2-(((((2R,3S,4R,5R)-5-(6-amino-8-chloro-9H-purin-9-yl)-3,4-dihydroxy-tetrahydrofuran-2-yl)methoxynaphthalene-1-yloxy)phosphoryl)amino)propanoate]",0.1 to 5 µM,0.1 to 5 µM,0.1 to 5 µM,0.1 to 5 µM,0.1 to 5 µM,0.1 to 5 µM,0.1 to 5 µM,0.1 to 5 µM,0.1 to 5 µM,0.1 to 5 µM,0.33 µM,5 to 15 µM,0.1 to 5 µM,5 to 15 µM,plasma concentration compared with the other compounds [1]: highest plasma concentration; EC50 (HL-60; with A-134974 (adenosine kinase inhibitor)): 21.3 µM; EC50 (HL-60; with NBTI (hENT1 inhibitor)): 1.23 µM
"Nc1ncnc2c1nc(Cl)n2[C@@H]1O[C@H](COP(=O)(NCC(=O)OC2CCCCC2)Oc2ccccc2)[C@@H](O)[C@H]1O (mixture of isomers) [Compound A, Cyclohexyl 2-(((((2R,3S,4R,5R)-5-(6-amino-8-chloro-9H-purin-9-yl)-3,4-dihydroxy-tetrahydrofuran-2-yl)methoxy)(phenoxy)phosphoryl)amino)acetate]",15 to 100 µM,5 to 15 µM,5 to 15 µM,0.1 to 5 µM,15 to 100 µM,15 to 100 µM,15 to 100 µM,15 to 100 µM,15 to 100 µM,5 to 15 µM,12.4 µM,> 100 µM,5 to 15 µM,15 to 100 µM,–
"Nc1ncnc2c1nc(Cl)n2[C@@H]1O[C@H](COP(=O)(NCC(=O)OCc2ccccc2)NCC(=O)OCc2ccccc2)C(O)C1O (some centres unmarked) [Compound AC, 8-Chloroadenosine 5′-O-bis(benzyloxy-glycin-N-yl) phosphate]",–,–,–,–,–,–,–,–,–,–,–,–,–,–,"IC50 (SW620; SW-620, CellTiterGlo, 72 hrs): 0.1 to 5 µM; IC50 (HEL92.1.7; HEL 92.1.7, CellTiterGlo, 72 hrs): 0.1 to 5 µM; IC50 (K562; K562, CellTiterGlo, 72 hrs): 0.1 to 5 µM; IC50 (Z138; Z-138, CellTiterGlo, 72 hrs): 0.1 to 5 µM; IC50 (Jurkat; CellTiterGlo, 72 hrs): 0.1 to 5 µM; IC50 (MCF7; MCF7, CellTiterGlo, 72 hrs): 0.1 to 5 µM; IC50 (NCI-H929; NCI-H929, CellTiterGlo, 72 hrs): 0.1 to 5 µM; IC50 (MOLT-4; MOLT-4, CellTiterGlo, 72 hrs): 0.1 to 5 µM; IC50 (THP-1; THP-1, CellTiterGlo, 72 hrs): 0.1 to 5 µM; IC50 (HepG2; HepG2, CellTiterGlo, 72 hrs): 0.1 to 5 µM; IC50 (HS445; Hs 445, CellTiterGlo, 72 hrs): 5 to 15 µM; IC50 (CCRFCEM; CellTiterGlo, 72 hrs): 0.1 to 5 µM; IC50 (BxPC-3; BXPC-3, CellTiterGlo, 72 hrs): 5 to 15 µM"
"C[C@H](NP(=O)(OC[C@H]1O[C@@H](n2c(Cl)nc3c(N)ncnc32)[C@H](O)[C@@H]1O)Oc1ccccc1)C(=O)OCc1ccccc1 (mixture of isomers) [C, (2S)-Benzyl 2-(((((2R,3S,4R,5R)-5-(6-amino-8-chloro-9H-purin-9-yl)-3,4-dihydroxy-tetrahydrofuran-2-yl)methoxy)(phenoxy)phosphoryl)amino)propanoate]",15 to 100 µM,15 to 100 µM,15 to 100 µM,0.1 to 5 µM,15 to 100 µM,15 to 100 µM,5 to 15 µM,0.1 to 5 µM,15 to 100 µM,15 to 100 µM,–,> 100 µM,5 to 15 µM,15 to 100 µM,–
"CC(C)C[C@H](NP(=O)(OC[C@H]1O[C@@H](n2c(Cl)nc3c(N)ncnc32)C(O)C1O)Oc1ccccc1)C(=O)OCc1ccccc1 (stereo partly drawn) [V, 5′-([(Benzyloxy-L-leucin-N-yl)-phenyl]-phosphatyl) 8-chloroadenosine]",0.1 to 5 µM,0.1 to 5 µM,0.1 to 5 µM,0.1 to 5 µM,5 to 15 µM,0.1 to 5 µM,0.1 to 5 µM,0.1 to 5 µM,0.1 to 5 µM,0.1 to 5 µM,–,15 to 100 µM,5 to 15 µM,5 to 15 µM,–
"CCCCCOC(=O)[C@H](C)NP(=O)(OC[C@H]1O[C@@H](n2c(Cl)nc3c(N)ncnc32)C(O)C1O)Oc1cccc2ccccc12 (stereo partly drawn) [Compound E, (2S)-Pentyl 2-(((((2R,3S,4R,5R)-5-(6-amino-8-chloro-9H-purin-9-yl)-3,4-dihydroxy-tetrahydrofuran-2-yl)methoxnaphthalene-1-yloxy)phosphoryl)amino)propanoate]",0.1 to 5 µM,0.1 to 5 µM,0.1 to 5 µM,0.1 to 5 µM,0.1 to 5 µM,0.1 to 5 µM,0.1 to 5 µM,0.1 to 5 µM,0.1 to 5 µM,0.1 to 5 µM,–,15 to 100 µM,0.1 to 5 µM,5 to 15 µM,–
